Test results published in patent publication US20260124222A1, “ISOTHIAZOLYLCARBOXAMIDE COMPOUNDS AND THEIR USE IN THERAPY” (HOTSPOT THERAPEUTICS, INC., priority 2022, published 2026).

Target: T1, Avi-tagged FL MALT-1 (Homo sapiens, UniProt Q9UDY8)
T1 construct: Avi-tagged FL MALT-1 (Pharmaron, stored at −70° C.); Avi-tag; purchased Pharmaron
T1 sequence (Q9UDY8 1-824): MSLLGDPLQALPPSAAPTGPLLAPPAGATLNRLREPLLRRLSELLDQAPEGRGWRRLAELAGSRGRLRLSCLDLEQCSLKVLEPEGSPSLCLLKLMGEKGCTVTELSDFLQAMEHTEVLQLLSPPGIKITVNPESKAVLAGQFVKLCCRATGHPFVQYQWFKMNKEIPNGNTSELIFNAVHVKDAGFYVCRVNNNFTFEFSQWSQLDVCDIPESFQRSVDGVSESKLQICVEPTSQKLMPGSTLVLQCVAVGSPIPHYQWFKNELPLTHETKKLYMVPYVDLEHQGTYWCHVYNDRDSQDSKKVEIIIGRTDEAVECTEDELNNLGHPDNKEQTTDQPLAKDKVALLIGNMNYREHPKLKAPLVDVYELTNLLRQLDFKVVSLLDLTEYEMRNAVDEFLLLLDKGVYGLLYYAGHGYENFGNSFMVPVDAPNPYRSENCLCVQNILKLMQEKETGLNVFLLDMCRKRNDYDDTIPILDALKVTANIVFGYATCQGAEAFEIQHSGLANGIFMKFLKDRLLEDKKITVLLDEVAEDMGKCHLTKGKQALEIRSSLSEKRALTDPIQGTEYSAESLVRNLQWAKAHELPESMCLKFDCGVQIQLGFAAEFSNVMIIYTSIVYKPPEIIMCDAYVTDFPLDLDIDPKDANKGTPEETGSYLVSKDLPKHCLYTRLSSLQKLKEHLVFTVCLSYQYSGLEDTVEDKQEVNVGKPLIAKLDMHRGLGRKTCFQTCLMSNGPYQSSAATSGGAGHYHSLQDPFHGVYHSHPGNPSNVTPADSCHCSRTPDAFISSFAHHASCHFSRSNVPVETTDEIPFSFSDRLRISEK
Assay: MALT-1 Fluorogenic Peptide Cleavage Assay (MALT1 inhibition assay)
Assay type: biochemical
Details: Ac-LRSR-AMC peptide substrate; 30 min pre-incubation, 90 min reaction at room temperature; fluorescence
Method in brief: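 Full-length Avi-tagged enzyme preincubated 30 min at room temperature with compound (2% DMSO final) in HEPES pH 6.89 buffer with sodium citrate, TCEP, EDTA and CHAPS. Ac-LRSR-AMC substrate added at Km or 10×Km (working stocks 50 or […] μM); fluorescence (ex 342/em 441 nm) after 90 min; IC50 from sigmoidal fit.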

| IC50 | Structure (SMILES) |
| --- | --- |
| ≤ 400 nM | N#Cc1cccc(-c2nsc(C(=O)Nc3ccnc(C(F)(F)F)c3)c2C2CC2)c1 [I-158, 3-(3-cyanophenyl)-4-cyclopropyl-N-[2-(trifluoromethyl)pyridin-4-yl]-1,2-thiazole-5-carboxamide] |
| ≤ 400 nM | O=C(Nc1ccnc(C(F)(F)F)c1)c1snc(-c2cccc3scnc23)c1C1CC1 [I-159, 3-(1,3-benzothiazol-4-yl)-4-cyclopropyl-N-[2-(trifluoromethyl)pyridin-4-yl]-1,2-thiazole-5-carboxamide] |
| ≤ 400 nM | Cc1ccccc1-c1nsc(C(=O)Nc2ccnc(C(F)(F)F)c2)c1C1CC1 [I-160, 4-cyclopropyl-3-(2-methylphenyl)-N-[2-(trifluoromethyl)pyridin-4-yl]-1,2-thiazole-5-carboxamide] |
| ≤ 400 nM | COc1ccccc1-c1nsc(C(=O)Nc2ccnc(C(F)(F)F)c2)c1C1CC1 [I-161, 4-cyclopropyl-3-(2-methoxyphenyl)-N-[2-(trifluoromethyl)pyridin-4-yl]-1,2-thiazole-5-carboxamide] |
| ≤ 400 nM | O=C(Nc1ccnc(C(F)(F)F)c1)c1snc(-c2cccc3ocnc23)c1C1CC1 [I-162, 3-(1,3-benzoxazol-4-yl)-4-cyclopropyl-N-[2-(trifluoromethyl)pyridin-4-yl]-1,2-thiazole-5-carboxamide] |
| ≤ 400 nM | COc1ncccc1-c1nsc(C(=O)Nc2ccnc(C(F)(F)F)c2)c1C1CC1 [I-163, 4-cyclopropyl-3-(2-methoxypyridin-3-yl)-N-(2-(trifluoromethyl)pyridin-4-yl)isothiazole-5-carboxamide] |
| ≤ 400 nM | O=C(Nc1ccnc(C(F)(F)F)c1)c1snc(-c2ccccc2C(F)(F)F)c1C1CC1 [I-164, 4-cyclopropyl-3-(2-(trifluoromethyl)phenyl)-N-(2-(trifluoromethyl)pyridin-4-yl)isothiazole-5-carboxamide] |
| ≤ 400 nM | O=C(Nc1ccnc(C(F)(F)F)c1)c1snc(-c2cccnc2)c1C1CC1 [I-165, 4-cyclopropyl-3-(pyridin-3-yl)-N-(2-(trifluoromethyl)pyridin-4-yl)isothiazole-5-carboxamide] |
| ≤ 400 nM | O=C(Nc1ccnc(C(F)(F)F)c1)c1snc(-c2ccc3[nH]ncc3c2)c1C1CC1 [I-166, 4-cyclopropyl-3-(1H-indazol-5-yl)-N-(2-(trifluoromethyl)pyridin-4-yl)isothiazole-5-carboxamide] |
| 400 to 1000 nM | Cc1cncc(-c2nsc(C(=O)Nc3ccnc(C(F)(F)F)c3)c2C2CC2)c1 [I-167, 4-cyclopropyl-3-(5-methylpyridin-3-yl)-N-(2-(trifluoromethyl)pyridin-4-yl)isothiazole-5-carboxamide] |
| 400 to 1000 nM | Cn1ncc2cc(-c3nsc(C(=O)Nc4ccnc(C(F)(F)F)c4)c3C3CC3)ccc21 [I-168, 4-cyclopropyl-3-(1-methyl-1H-indazol-5-yl)-N-(2-(trifluoromethyl)pyridin-4-yl)isothiazole-5-carboxamide] |
| ≤ 400 nM | O=C(Nc1ccnc(C(F)(F)F)c1)c1snc(-c2ccc3cn[nH]c3c2)c1C1CC1 [I-169, 4-cyclopropyl-3-(1H-indazol-6-yl)-N-(2-(trifluoromethyl)pyridin-4-yl)isothiazole-5-carboxamide] |
| ≤ 400 nM | COc1ccncc1-c1nsc(C(=O)Nc2ccnc(C(F)(F)F)c2)c1C1CC1 [I-170, 4-cyclopropyl-3-(4-methoxypyridin-3-yl)-N-(2-(trifluoromethyl)pyridin-4-yl)isothiazole-5-carboxamide] |
| ≤ 400 nM | Cc1ncccc1-c1nsc(C(=O)Nc2ccnc(C(F)(F)F)c2)c1C1CC1 [I-171, 4-cyclopropyl-3-(2-methylpyridin-3-yl)-N-[2-(trifluoromethyl)pyridin-4-yl]-1,2-thiazole-5-carboxamide] |
| ≤ 400 nM | O=C(Nc1ccnc(C(F)(F)F)c1)c1snc(-c2ccc(F)cc2)c1C1CC1 [I-172, 4-cyclopropyl-3-(4-fluorophenyl)-N-[2-(trifluoromethyl)pyridin-4-yl]-1,2-thiazole-5-carboxamide] |
| ≤ 400 nM | Cc1ccncc1-c1nsc(C(=O)Nc2ccnc(C(F)(F)F)c2)c1C1CC1 [I-173, 4-cyclopropyl-3-(4-methylpyridin-3-yl)-N-(2-(trifluoromethyl)pyridin-4-yl)isothiazole-5-carboxamide] |

| IC50 | Structure (SMILES) |
| --- | --- |
| ≤ 400 nM | O=C(Nc1ccnc(C(F)(F)F)c1)c1snc(-c2cccc(C(F)F)c2)c1C1CC1 [I-174, 4-cyclopropyl-3-[3-(difluoromethyl)phenyl]-N-[2-(trifluoromethyl)pyridin-4-yl]-1,2-thiazole-5-carboxamide] |
| ≤ 400 nM | Cn1ccc2c(-c3nsc(C(=O)Nc4ccnc(C(F)(F)F)c4)c3C3CC3)ccnc21 [I-175, 4-cyclopropyl-3-{1-methylpyrrolo[2,3-b]pyridin-4-yl}-N-[2-(trifluoromethyl)pyridin-4-yl]-1,2-thiazole-5-carboxamide] |
| 1000 to 2500 nM | CNC(=O)c1ccc(-c2nsc(C(=O)Nc3ccnc(C(F)(F)F)c3)c2C2CC2)cc1 [I-176, 4-cyclopropyl-3-[4-(methylcarbamoyl)phenyl]-N-[2-(trifluoromethyl)pyridin-4-yl]-1,2-thiazole-5-carboxamide] |
| ≤ 400 nM | O=C(Nc1ccnc(C(F)(F)F)c1)c1snc(-c2cncc3ccccc23)c1C1CC1 [I-177, 4-cyclopropyl-3-(isoquinolin-4-yl)-N-(2-(trifluoromethyl)pyridin-4-yl)isothiazole-5-carboxamide] |
| ≤ 400 nM | Cc1cccc(-c2nsc(C(=O)Nc3ccnc(C(F)(F)F)c3)c2C2CC2)c1 [I-178, 4-cyclopropyl-3-(3-methylphenyl)-N-[2-(trifluoromethyl)pyridin-4-yl]-1,2-thiazole-5-carboxamide] |
| ≤ 400 nM | N#Cc1cc(NC(=O)c2snc(-c3cccc4ncccc34)c2C2CC2)ccc1C(=O)N1CC(O)C1 [I-180, N-(3-cyano-4-(3-hydroxyazetidine-1-carbonyl)phenyl)-4-cyclopropyl-3-(quinolin-5-yl)isothiazole-5-carboxamide] |
| 1000 to 2500 nM | Cn1cc(-c2nsc(C(=O)Nc3ccnc(C(F)(F)F)c3)c2C2CC2)cn1 [I-181, 4-cyclopropyl-3-(1-methyl-1H-pyrazol-4-yl)-N-(2-(trifluoromethyl)pyridin-4-yl)isothiazole-5-carboxamide] |
| ≤ 400 nM | O=C(Nc1ccnc(C(F)(F)F)c1)c1snc(-c2cccc3[nH]ncc23)c1C1CC1 [I-182, 4-cyclopropyl-3-(1H-indazol-4-yl)-N-(2-(trifluoromethyl)pyridin-4-yl)isothiazole-5-carboxamide] |
| ≤ 400 nM | Cc1c(-c2nsc(C(=O)Nc3ccnc(C(F)(F)F)c3)c2C2CC2)cnn1C [I-183, 4-cyclopropyl-3-(1,5-dimethyl-1H-pyrazol-4-yl)-N-(2-(trifluoromethyl)pyridin-4-yl)isothiazole-5-carboxamide] |
| ≤ 400 nM | O=C(Nc1ccnc(C(F)(F)F)c1)c1snc(-c2ccncc2)c1C1CC1 [I-184, 4-cyclopropyl-3-(pyridin-4-yl)-N-(2-(trifluoromethyl)pyridin-4-yl)isothiazole-5-carboxamide] |
| 1000 to 2500 nM | O=C(Nc1ccnc(C(F)(F)F)c1)c1snc(-c2ccn3ccnc3c2)c1C1CC1 [I-185, 4-cyclopropyl-3-(imidazo[1,2-a]pyridin-7-yl)-N-(2-(trifluoromethyl)pyridin-4-yl)isothiazole-5-carboxamide] |
| ≤ 400 nM | O=C(Nc1ccnc(C(F)(F)F)c1)c1snc(-c2ccc3nccn3c2)c1C1CC1 [I-186, 4-cyclopropyl-3-{imidazo[1,2-a]pyridin-6-yl}-N-[2-(trifluoromethyl)pyridin-4-yl]-1,2-thiazole-5-carboxamide] |
| ≤ 400 nM | O=C(Nc1ccnc(C(F)(F)F)c1)c1snc(-c2c(Cl)cncc2Cl)c1C1CC1 [I-187, 4-cyclopropyl-3-(3,5-dichloropyridin-4-yl)-N-(2-(trifluoromethyl)pyridin-4-yl)isothiazole-5-carboxamide] |
| ≤ 400 nM | N#Cc1cc(NC(=O)c2snc(-c3cccc4c(=O)[nH]ccc34)c2C2CC2)cnc1-n1nccn1 [I-188, N-(5-cyano-6-(2H-1,2,3-triazol-2-yl)pyridin-3-yl)-4-cyclopropyl-3-(1-oxo-1,2-dihydroisoquinolin-5-yl)isothiazole-5-carboxamide] |
| ≤ 400 nM | O=C(Nc1ccnc(C(F)(F)F)c1)c1snc(-c2cccc3c(=O)[nH]ccc23)c1C1CC1 [I-189, 4-cyclopropyl-3-(1-oxo-1,2-dihydroisoquinolin-5-yl)-N-(2-(trifluoromethyl)pyridin-4-yl)isothiazole-5-carboxamide] |
